Reference: patent US6720330B2, “Somatostatin antagonists and agonists that act at the SST subtype 2 receptor” (Pfizer Inc., priority 2000, dated 2004)
Where no end group is shown, it is not given here.

Tested on: somatostatin receptor
Test: Rat pituitary assay for somatostatin receptor antagonists (cAMP content of GH4C1 cells)
Assay type: cell-based
Conditions: GH4C1 pituitary cell line; 100 nM VIP, 10 nM somatostatin 14

Compound	cAMP content of the GH4C1 cells
C[C@H](N)C(=O)NCC(=O)N[C@H]1CSSC[C@@H](C(=O)O)NC(=O)[C@H](CO)NC(=O)[C@H]([C@@H](C)O)NC(=O)[C@H](Cc2ccccc2)NC(=O)[C@H]([C@@H](C)O)NC(=O)[C@H](CCCCN)NC(=O)[C@H](Cc2c[nH]c3ccccc23)NC(=O)[C@H](Cc2ccccc2)NC(=O)[C@H](Cc2ccccc2)NC(=O)[C@H](CC(N)=O)NC(=O)[C@H](CCCCN)NC1=O [somatostatin, somatostatin 14]	partial inhibition
vasoactive intestinal peptide (HSDAVFTDNYTRLRKQMAVKKYLNSILN; ends and bridges not checked; UniProt P01282 125-152, looked up) [VIP, endogenous peptide that stimulates GH secretion]	increased cAMP content
